Solubility in solvents data for two compounds are collected here from patent US20030232999A1, “POLYMETHINE COMPOUND AND NEAR-INFRARED ABSORBING MATERIAL COMPRISING SAME” (priority 2002, published 2003).

The data set can be described thus: Solubility in solvents (stated in words). It counts as physicochemical. To be noted: statement in words.

As for `COCCN1/C(=C\C=C2/CCCC(/C=C/C3=[N+](CCOC)c4ccccc4C3(C)C)=C2Cl)C(C)(C)c2ccccc21` [compound A], the solubility in solvents entry is reported as “low”. In the case of `CCN1/C(=C\C=C2/CCCC(/C=C/C3=[N+](CC)c4ccc(OC)cc4C3(C)C)=C2Cl)C(C)(C)c2cc(OC)ccc21.[I-]` [compound B] it was “low”.
